Data published in patent publication US20230407243A1, “GENETIC PLATFORM TO INVESTIGATE THE FUNCTIONS OF BACTERIAL DRUG EFFLUX PUMPS” (priority 2022, published 2023).
Where two headings read alike, the source gives them in different places.

Assays:
Format in all cases: cell-based, Escherichia coli
EKO-35 araC::acrEF = test: MIC susceptibility profiling, efflux platform; details: for Fold change of MICs: EKO-35 araC::acrEF compared to EKO-35; for MIC: Escherichia coli, Table 13A, non-porinated, technical duplicate, read-out: Minimum Inhibitory Concentration, EKO-35 araC::acrEF
Method in brief: (§1)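 Overnight LB cultures (37 °C, 18 h) were resuspended in PBS pH 7.4 to OD600 ~1.0 and diluted 1/2000 into MHB II. Strains were exposed to 2-fold serial compound dilutions in duplicate for 18 h at 37 °C with shaking. MIC was read from OD600 after subtracting pre-incubation background.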

EKO-35 araC::acrD = test: MIC susceptibility profiling, efflux platform; details: for Fold change of MICs: EKO-35 araC::acrD compared to EKO-35; for MIC: Escherichia coli, Table 13A, non-porinated, technical duplicate, read-out: Minimum Inhibitory Concentration, EKO-35 araC::acrD
Method in brief: as §1

EKO-35 araC::emrAB = test: MIC susceptibility profiling, efflux platform; details: for Fold change of MICs: EKO-35 araC::emrAB compared to EKO-35; for MIC: Escherichia coli, Table 13B, non-porinated, technical duplicate, read-out: Minimum Inhibitory Concentration, EKO-35 araC::emrAB
Method in brief: as §1

EKO-35 araC::mdtEF = test: MIC susceptibility profiling, efflux platform; details: for Fold change of MICs: EKO-35 araC::mdtEF compared to EKO-35; for MIC: Escherichia coli, Table 13A, non-porinated, technical duplicate, read-out: Minimum Inhibitory Concentration, EKO-35 araC::mdtEF
Method in brief: as §1

EKO-35 araC::macAB = test: MIC susceptibility profiling, efflux platform; details: for Fold change of MICs: EKO-35 araC::macAB compared to EKO-35; for MIC: Escherichia coli, Table 13B, non-porinated, technical duplicate, read-out: Minimum Inhibitory Concentration, EKO-35 araC::macAB
Method in brief: as §1

EKO-35 araC::mdtBC = test: MIC susceptibility profiling, efflux platform; details: for Fold change of MICs: EKO-35 araC::mdtBC compared to EKO-35; for MIC: Escherichia coli, Table 13B, non-porinated, technical duplicate, read-out: Minimum Inhibitory Concentration, EKO-35 araC::mdtBC
Method in brief: as §1

EKO-35 araC::acrB = test: MIC susceptibility profiling, efflux platform; details: for Fold change of MICs: EKO-35 araC::acrB compared to EKO-35; for MIC: Escherichia coli, Table 13A, non-porinated, technical duplicate, read-out: Minimum Inhibitory Concentration, EKO-35 araC::acrB
Method in brief: as §1

EKO-35 araC::acrBD408A = test: MIC susceptibility profiling, efflux platform; details: for Fold change of MICs: EKO-35 araC::acrBD408A compared to EKO-35; for MIC: Escherichia coli, Table 13B, non-porinated, technical duplicate, read-out: Minimum Inhibitory Concentration, EKO-35 araC::acrBD408A
Method in brief: as §1

[1] = tested on: EKO-35 araC::mexCD (MexCD from P. aeruginosa); test: MIC susceptibility profiling, efflux platform; details: for Fold change of MICs: EKO-35 araC::mexCD compared to EKO-35; for MIC: Table 13B, non-porinated, technical duplicate, read-out: Minimum Inhibitory Concentration, EKO-35 araC::mexCD
Method in brief: as §1

EKO-35 araC::emrKY = test: MIC susceptibility profiling, efflux platform; details: for Fold change of MICs: EKO-35 araC::emrKY compared to EKO-35; for MIC: Escherichia coli, Table 13B, non-porinated, technical duplicate, read-out: Minimum Inhibitory Concentration, EKO-35 araC::emrKY
Method in brief: as §1

EKO-35 araC::mdtEF Pore = test: MIC susceptibility profiling, porinated efflux platform; details: for Fold changes of MICs: EKO-35 araC::mdtEF Pore compared to EKO-35-Pore
Method in brief: (§2)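 MIC values come from background-corrected OD600 readings (pre-incubation OD subtracted) after 18 h at 37 °C and 900 rpm in MHB II. Compounds were tested in duplicate as 2-fold dilutions. The inoculum came from 18 h LB cultures adjusted to OD600 ~1.0 and diluted 1/2000, and the pore-bearing strains were vancomycin-checked beforehand.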

EKO-35 araC::acrEF Pore = test: as above; details: for Fold changes of MICs: EKO-35 araC::acrEF Pore compared to EKO-35-Pore
Method in brief: as §2

EKO-35 araC::macAB Pore = test: as above; details: for Fold changes of MICs: EKO-35 araC::macAB Pore compared to EKO-35-Pore
Method in brief: as §2

EKO-35 araC::emrKY Pore = test: as above; details: for Fold changes of MICs: EKO-35 araC::emrKY Pore compared to EKO-35-Pore
Method in brief: as §2

wild-type (WT) K-12-Pore = test: microbe, parasite or virus in culture; details: Escherichia coli, technical duplicate
Method in brief: as §2

ΔtolC-Pore = test: microbe, parasite or virus in culture; details: for MIC: Escherichia coli, 18 h, read-out: Minimum inhibitory concentration, ΔtolC-Pore; for Minimum inhibitory concentration (MIC), Pore ΔtolC: Table 10, with pore, technical duplicate
Method in brief: as §2

E. coli EKO-35 = test: microbe, parasite or virus in culture; details: for Fold change of MICs: EKO-35 compared to EKO-35 (reference); for MIC: Escherichia coli, EKO35, technical duplicate
Method in brief: as §1

E. coli ΔtolC = test: microbe, parasite or virus in culture; details: for MIC: Escherichia coli, 18 h, read-out: Minimum Inhibitory Concentration, ΔtolC; for Minimum inhibitory concentration (MIC), ΔtolC: Table 10, without pore, technical duplicate
Method in brief: as §1

[2] = tested on: wild-type E. coli K-12 str. BW25113; test: microbe, parasite or virus in culture; details: Escherichia coli, BW25113, technical duplicate
Method in brief: as §1

[3] = Table 10, with pore, read-out: Minimum inhibitory concentration (MIC), Pore K-12
[4] = Table 14A, porinated, read-out: Minimum inhibitory concentration, K-12 (WT)-Pore
[5] = Table 10, without pore, read-out: Minimum inhibitory concentration (MIC), EKO-35
[6] = Table 13A, non-porinated, read-out: Minimum Inhibitory Concentration, EKO-35
[7] = Table 10, without pore, read-out: Minimum inhibitory concentration (MIC), K-12
[8] = Table 13A, non-porinated, read-out: Minimum Inhibitory Concentration, K-12

| SMILES | Fold change of MICs (EKO-35 araC::acrEF) | MIC (EKO-35 araC::acrEF) | Fold change of MICs (EKO-35 araC::acrD) | MIC (EKO-35 araC::acrD) | Fold change of MICs (EKO-35 araC::emrAB) | MIC (EKO-35 araC::emrAB) | Fold change of MICs (EKO-35 araC::mdtEF) | MIC (EKO-35 araC::mdtEF) | Fold change of MICs (EKO-35 araC::macAB) | MIC (EKO-35 araC::macAB) | Fold change of MICs (EKO-35 araC::mdtBC) | MIC (EKO-35 araC::mdtBC) | Fold change of MICs (EKO-35 araC::acrB) | MIC (EKO-35 araC::acrB) | Fold change of MICs (EKO-35 araC::acrBD408A) | MIC (EKO-35 araC::acrBD408A) | Fold change of MICs [1] | MIC [1] | Fold change of MICs (EKO-35 araC::emrKY) | MIC (EKO-35 araC::emrKY) | other results |
| --- | --- | --- | --- | --- | --- | --- | --- | --- | --- | --- | --- | --- | --- | --- | --- | --- | --- | --- | --- | --- | --- |
| CN[C@@H]1[C@H](O)[C@H](NC)[C@H]2O[C@@]3(O)C(=O)C[C@@H](C)O[C@H]3O[C@@H]2[C@H]1O [Spectinomycin] | 1 fold | 25 µg/mL | 1 fold | 25 µg/mL | 1 fold | 25 µg/mL | 1 fold | 25 µg/mL | 1 fold | 25 µg/mL | 1 fold | 25 µg/mL | 1 fold | 25 µg/mL | 1 fold | 25 µg/mL | 1 fold | 25 µg/mL | 1 fold | 25 µg/mL | Fold changes of MICs (EKO-35 araC::mdtEF Pore): 1 fold; Fold changes of MICs (EKO-35 araC::acrEF Pore): 1 fold; Fold changes of MICs (EKO-35 araC::macAB Pore): 1 fold; Fold changes of MICs (EKO-35 araC::emrKY Pore): 1 fold; MIC (wild-type (WT) K-12-Pore; [3]): 12.5 µg/mL; MIC (wild-type (WT) K-12-Pore; [4]): 12.5 µg/mL; MIC (ΔtolC-Pore): 6.25 µg/mL; Minimum inhibitory concentration (MIC), Pore ΔtolC (ΔtolC-Pore): 6.25 µg/mL; Fold change of MICs (E. coli EKO-35): 1 fold; MIC (E. coli EKO-35; [5]): 25 µg/mL; MIC (E. coli EKO-35; [6]): 25 µg/mL; MIC (E. coli ΔtolC): 6.25 µg/mL; Minimum inhibitory concentration (MIC), ΔtolC (E. coli ΔtolC): 6.25 µg/mL; MIC [2, 7]: 25 µg/mL; MIC [2, 8]: 25 µg/mL |
| COc1cccc2c1C(=O)c1c(O)c3c(c(O)c1C2=O)C[C@@](O)(C(=O)CO)C[C@@H]3O[C@H]1C[C@H](N)[C@H](O)[C@H](C)O1 [doxorubicin] | 64 fold | 100 µg/mL | 2 fold | 3.12 µg/mL | 1 fold | 1.56 µg/mL | 64 fold | 100 µg/mL | 1 fold | 1.56 µg/mL | 1 fold | 1.56 µg/mL | 128 fold | 200 µg/mL | 1 fold | 1.56 µg/mL | 16 fold | 25 µg/mL | 1 fold | 1.56 µg/mL | Fold changes of MICs (EKO-35 araC::mdtEF Pore): 32 fold; MIC (EKO-35 araC::mdtEF Pore; Escherichia coli, Table 14A, porinated, technical duplicate, read-out: Minimum inhibitory concentration, EKO-35 araC::mdtEF Pore): 25 µg/mL; Fold changes of MICs (EKO-35 araC::acrEF Pore): 16 fold; MIC (EKO-35 araC::acrEF Pore; Escherichia coli, Table 14A, porinated, technical duplicate, read-out: Minimum inhibitory concentration, EKO-35 araC::acrEF Pore): 12.5 µg/mL; Fold changes of MICs (EKO-35 araC::macAB Pore): 1 fold; MIC (EKO-35 araC::macAB Pore; Escherichia coli, EKO-35 araC::macAB Pore, technical duplicate, read-out: Minimum inhibitory concentration): 0.781 µg/mL; Fold changes of MICs (EKO-35 araC::emrKY Pore): 1 fold; MIC (EKO-35 araC::emrKY Pore; Escherichia coli, EKO-35 araC::emrKY Pore, technical duplicate, read-out: Minimum inhibitory concentration): 0.781 µg/mL; MIC (wild-type (WT) K-12-Pore; [3]): 50 µg/mL; MIC (wild-type (WT) K-12-Pore; [4]): 50 µg/mL; MIC (ΔtolC-Pore): 0.781 µg/mL; Minimum inhibitory concentration (MIC), Pore ΔtolC (ΔtolC-Pore): 0.781 µg/mL; Fold change of MICs (E. coli EKO-35): 1 fold; MIC (E. coli EKO-35; [5]): 1.56 µg/mL; MIC (E. coli EKO-35; [6]): 1.56 µg/mL; MIC (E. coli ΔtolC): 1.56 µg/mL; Minimum inhibitory concentration (MIC), ΔtolC (E. coli ΔtolC): 1.563 µg/mL; MIC [2, 7]: 200 µg/mL; MIC [2, 8]: 200 µg/mL |
